Test results reported in US5763700A, “Pesticidal fluoroolefins” (British Technology Group Limited, priority 1992, dated 1998).

Tested on: cornroot worm (Diabrotica balteata)
Assay: Residual soil activity against cornroot worm larvae, mortality after 48 hours, LC50 by probit analysis
Assay type: in vivo
Details: sandy soil, 10% moisture, 22 g, 20° C., 10 larvae, two replicates, 5 dose levels
Method: Residual soil activity of the compounds of Examples 25 to 40 was assessed against cornroot worm (Diabrotica balteata) using the following technique.
A known quantity of test compound dissolved in 1.0 ml acetone was applied evenly to a standard amount (22 g) of a sandy soil with a 10% moisture content. After 1 hour, 10 larvae were introduced. The temperature was maintained at 20° C. ±1° C. and mortality assessed after 48 hours. Two replicates of 10 larvae were used at each of 5 dose levels per compound. LC50 values were calculated as concentration of insecticide in the standard amount of soil using probit analysis.

Row | Compound | Residual Soil Activity (LC50)
1 | F/C(=C\C1(c2ccc(C(F)(F)F)cc2F)CC1)Cc1ccc(F)c(Oc2ccccc2)c1 [Example 36, 1-(2-Fluoro-3-(4-fluoro-3-phenoxyphenyl)prop-1-enyl)-1-(2-fluoro-4-trifluoromethylphenyl)cyclopropane] | 0.021 ppm
2 | F/C(=C\C1(c2ccc(C(F)(F)F)cc2F)CC1)Cc1cccc(Oc2ccccc2)c1 [Example 29, 1-(2-Fluoro-3-(3-phenoxyphenyl)prop-1-enyl)-1-(2-fluoro-4-trifluoromethylphenyl) cyclopropane] | 0.030 ppm
3 | Fc1ccc(C2(/C=C/Cc3ccc(F)c(Oc4ccccc4)c3)CC2)cc1 [Comp C, 1-(4-fluorophenyl)-1-(E-3-(4-fluoro-3-phenoxyphenyl)prop-1-enyl)-cyclopropane, reference compound] | 0.059 ppm
4 | Fc1ccc(C/C=C/C2(c3ccc(Cl)cc3)CC2)cc1Oc1ccccc1 [Comp A, 1-(4-chlorophenyl)-1-(E-3-(4-fluoro-3-phenoxyphenyl)prop-1-enyl)-cyclopropane, reference compound] | 0.68 ppm
5 | CCOc1ccc(C2(/C=C(\F)Cc3ccc(F)c(Oc4ccccc4)c3)CC2)cc1 [Example 34, 1-(4-Ethoxyphenyl)-1-(2-fluoro-3-(4-fluoro-3-phenoxyphenyl)prop-1-enyl)cyclopropane] | 0.031 ppm
6 | F/C(=C\C1(c2ccc(F)cc2)CC1)Cc1ccc(F)c(Oc2ccccc2)c1 [Example 35, 1-(2-Fluoro-3-(4-fluoro-3-phenoxyphenyl)prop-1-enyl)-1-(4-fluorophenyl)cyclopropane] | 0.032 ppm
7 | CCOc1ccc(C2(/C=C/Cc3ccc(F)c(Oc4ccccc4)c3)CC2)cc1 [Comp B, 1-(4-ethoxyphenyl)-1-(E-3-(4-fluoro-3-phenoxyphenyl)prop-1-enyl)-cyclopropane, reference compound] | 0.43 ppm
8 | FC(F)(F)Oc1ccc(C2(/C=C/Cc3cccc(Oc4ccccc4)c3)CC2)cc1 [Comp D, 1-(4-trifluoromethoxyphenyl)-1-(E-3-(3-phenoxyphenyl)prop-1-enyl)-cyclopropane, reference compound] | 0.059 ppm
9 | F/C(=C\C1(c2ccc(OC(F)F)cc2)CC1)Cc1ccc(F)c(Oc2ccccc2)c1 [Example 39, 1-(4-Difluoromethoxyphenyl)-1-(2-fluoro-3-(4-fluoro-3-phenoxyphenyl)prop-1-enyl)cyclopropane] | 0.033 ppm
10 | F/C(=C\C1(c2ccc(OC(F)F)cc2)CC1)Cc1cccc(Oc2ccccc2)c1 [Example 32, 1-(4-Difluoromethoxyphenyl)-1-(2-fluoro-3-(3-phenoxyphenyl)prop-1-enyl)cyclopropane] | 0.055 ppm
11 | F/C(=C\C1(c2ccc(F)cc2)CC1)Cc1cccc(Oc2ccccc2)c1 [Example 28, 1-(2-Fluoro-3-(3-phenoxyphenyl)prop-1-enyl)-1-(4-fluorophenyl)cyclopropane] | 0.015 ppm
12 | F/C(=C\C1(c2ccc3c(c2)OCO3)CC1)Cc1ccc(F)c(Oc2ccccc2)c1 [Example 37, 1-(2-Fluoro-3-(4-fluoro-3-phenoxyphenyl)prop-1-enyl)-1-(3,4-methylenedioxyphenyl)cyclopropane] | 0.055 ppm
13 | CCOc1ccc(C2(/C=C(\F)Cc3cccc(Oc4ccccc4)c3)CC2)cc1 [Example 26, 1-(4-Ethoxyphenyl)-1-(2-fluoro-3-(3-phenoxyphenyl)prop-1-enyl)cyclopropane] | 0.029 ppm
14 | F/C(=C\C1(c2ccc3c(c2)OCO3)CC1)Cc1cccc(Oc2ccccc2)c1 [Example 30, 1-(2-Fluoro-3-(3-phenoxyphenyl)prop-1-enyl)-1-(3,4-methylenedioxyphenyl)cyclopropane] | 0.021 ppm
15 | F/C(=C\C1(c2ccc(Cl)cc2)CC1)Cc1cccc(Oc2ccccc2)c1 [Example 25, 1-(4-Chlorophenyl)-1-(2-fluoro-3-(3-phenoxyphenyl)prop-1-enyl)cyclopropane] | 0.031 ppm
16 | F/C(=C\C1(c2ccc(OC(F)(F)F)cc2)CC1)Cc1cccc(Oc2ccccc2)c1 [Example 27, 1-(2-Fluoro-3-(3-phenoxyphenyl)prop-1-enyl)-1-(4-trifluoromethoxy-phenyl)cyclopropane] | 0.038 ppm
